Measured values: article PMC10046693, “KI04 an Aminoglycosides-Derived Molecule Acts as an Inhibitor of Human Connexin46 Hemichannels Expressed in HeLa Cells” (Biomolecules, 2023)

How the values were obtained:
[1] = target: T1, Connexin46 (Cx46) hemichannel (Homo sapiens, UniProt Q9Y6H8); experiment: DAPI uptake dose response in Cx46tGFP HeLa cells; whole-cell patch clamp ([…] KI04 decreased currents); type: cell-based
T1 construct: gene GJA3; human Cx46tGFP (turbo GFP fusion) expressed in HeLa cells

[2] = target: T1, Connexin46 (Cx46) hemichannel; experiment: DAPI uptake dose response in Cx46tGFP HeLa cells; type: cell-based

IC50 [1] [µM] | Compound | IC50 [2] [µM]
~7.7 | CCCCCCCCCCCC(=O)NC[C@@H]1O[C@H](O[C@H]2[C@H](O)[C@@H](O[C@H]3O[C@H](CO)[C@@H](O)[C@H](N)[C@H]3O)[C@H](N)C[C@@H]2N)[C@H](O)[C@@H](O)[C@@H]1O [KI04] | –
– | NC[C@H]1O[C@H](O[C@H]2[C@H](O)[C@@H](O[C@H]3O[C@H](CO)[C@@H](O)[C@H](N)[C@H]3O)[C@H](N)C[C@@H]2N)[C@H](O)[C@@H](O)[C@@H]1O [kanamycin] | 1.7
